# Literature values, collected in publication PMC5571359, “Screening the Medicines for Malaria Venture Pathogen Box across Multiple Pathogens Reclassifies Starting Points for Open-Source Drug Discovery” (Antimicrobial Agents and Chemotherapy, 2017).
# Like-named read-outs stand apart in the source and are kept apart here.
# Tests used:
# P. falciparum ABS = conditions: cited from earlier work; for EC50: ChEMBL Data; for IC50: read-out: Pf 3D7 Pbox IC50
# HepG2 = conditions: cited from earlier work
# [1] = TCMDC, read-out: TCMDC (ref 93) EX50
# [2] = Pf 3D7, ref Pathogen Box supporting information
# [3] = P. falciparum, read-out: TCMDC (ref 93) EX50
# [4] = P. falciparum 3D7, ref PBox supporting information
# [5] = read-out: HepG2 PBox CC50 µM, HepG2 cytotoxicity, ref PBox supporting information
# [6] = P. falciparum, read-out: NITD (ref 94) EC50
# [7] = ref Pbox supporting information
# [8] = ref PBox supporting information
structure (smiles),measurement,setting,value
CC(C)(C)c1cc(C(=O)N2CCN(c3nccnc3C#N)CC2)n(Cc2ccccc2)n1 [MMV023949],EC50,P. falciparum ABS; [1],760 nM
same,IC50,P. falciparum ABS; [2],600 nM
O=C(Nc1cccc(-c2ccc(NCCCN3CCCC3)nc2)c1)c1ccccc1 [MMV023953],EC50,P. falciparum ABS; [1],870 nM
same,IC50,P. falciparum ABS; [2],850 nM
CS(=O)(=O)c1cccc(-c2cnc3[nH]cc(-c4ccc(CCC(=O)O)cc4)c3c2)c1 [MMV026020],EC50,P. falciparum ABS; [3],630 nM
same,IC50,P. falciparum ABS; [4],500 nM
OCc1ccc(-c2cncc(Nc3cccc(Cl)c3)c2)cc1 [MMV026468],EC50,P. falciparum ABS; [3],74 nM
same,IC50,P. falciparum ABS; [4],33.5 nM
CC(C)(C)CN1C(=O)C(c2ccccc2)(c2ccccc2)N=C1N [MMV026550],EC50,P. falciparum ABS; [3],520 nM
same,IC50,P. falciparum ABS; [4],800 nM
COc1cc(C(F)(F)F)nc2ccc(C)c(N)c12 [MMV047015],CC50,HepG2; [5],> 100 µM
N#Cc1ccc(-c2ccc(OCC(N)=O)cc2)cc1 [MMV053220],CC50,HepG2; [5],> 100 µM
Cc1nn(Cc2ccccc2)c(Cl)c1C(=O)NC1CCCCCC1 [MMV063404],CC50,HepG2,> 100 µM
FC(F)(F)c1nnc2ccc(Cl)nn12 [MMV069458],CC50,HepG2; [5],> 100 µM
O=C(Nc1cnc2ccccc2c1)c1cccc(-n2cnnn2)c1 [MMV084864],EC50,P. falciparum ABS; [6],170 nM
same,IC50,P. falciparum ABS; [4],540 nM
O=C(C(Cc1c[nH]c2ccccc12)NS(=O)(=O)c1ccc(Cl)cc1)N1CCCCC1 (stereo not drawn) [MMV085210],EC50,P. falciparum ABS; [6],720 nM
same,IC50,P. falciparum ABS; [4],> 2000 nM
CCCNC(=O)N1CCC2(CC1)CC(=O)c1cc(C)ccc1O2 [MMV085230],EC50,P. falciparum ABS; [6],870 nM
same,IC50,P. falciparum ABS; [4],2060 nM
CCOC(=O)NC(=O)c1ccsc1NC(=O)c1nc2ccccc2s1 [MMV090930],CC50,HepG2; [5],47 µM
O=C(Nc1nnc(-c2ccc(Cl)cc2)o1)c1cccc(C(F)(F)F)c1 [MMV102872],CC50,HepG2; [5],9 µM
CCC(C)NC(=O)c1ccc(NC(=O)C2(c3ccccc3)CCCC2)cc1 (stereo not drawn) [MMV146306],CC50,HepG2; [5],> 100 µM
Cc1cc(Cl)ccc1NC(=O)CCc1ccc(S(=O)(=O)NCC(C)C)cc1 [MMV161996],CC50,HepG2; [5],> 100 µM
COc1ccc(C2(C(=O)Nc3ccc(Br)cc3)CCCC2)cc1 [MMV200748],CC50,HepG2; [5],> 100 µM
COc1ccc(OC(C)C(=O)Nc2ccc(Cl)cc2C)cc1 (stereo not drawn) [MMV202458],CC50,HepG2; [5],> 100 µM
CN1CCN(c2nccc3[nH]c(-c4cccc(F)c4)cc23)CC1 [MMV393144],IC50,P. falciparum ABS; [4],1460 nM
Cc1cc(O)nc(-n2nc(C)cc2C)n1 [MMV393995],CC50,HepG2,60.7 µM
CCc1nc2ccc(C(=O)NCc3ccc4c(c3)OCO4)cn2c1N(C)Cc1cccs1 [MMV407539],HepG2 PBox CC20 μMc,HepG2; [7],18600 nM
COC(=O)c1c(NC(=O)c2c(F)c(F)c(F)c(F)c2F)sc2c1CCCCC2 [MMV461553],CC50,HepG2; [5],7.5 µM
CCC(Sc1nc2ccccc2o1)C(=O)Nc1nnc(C)s1 (stereo not drawn) [MMV611037],CC50,HepG2; [5],> 100 µM
"CN1CCC[C@@H]1CCO[C@](C)(c1ccccc1)c1ccc(Cl)cc1 [MMV637229, clemastine, reference compound]",HepG2 PBox CC20 μMc,HepG2,9300 nM
Nc1ncc(-c2ccc(C(F)(F)F)nc2)cc1-c1ccc(C(F)(F)F)nc1 [MMV668727],HepG2 PBox CC20 μMc,HepG2; [7],>80000 nM
CC(C)(C)c1ccc(N[C@@H]2CCCC[C@H]2NC(=O)c2ccco2)cc1 [MMV675969],HepG2 PBox CC20 μMc,HepG2; [7],35900 nM
Clc1ccc(-n2cc(COc3ccnc4ccccc34)nn2)cc1 [MMV675994],HepG2 PBox CC20,HepG2; [8],13600 nM
COc1ccc(N(CCc2cccc(C)n2)C(C)=O)cc1 [MMV675995],HepG2 PBox CC20 μMc,HepG2; [7],>80000 nM
COc1ccc(N(CCc2cccc(C)n2)C(=O)C2CCCCC2)cc1 [MMV675996],HepG2 PBox CC20 μMc,HepG2; [7],>80000 nM
COc1cc(NC(=O)Cc2nn(C)c(=O)c3ccccc23)ccc1Cl [MMV676053],HepG2 PBox CC20,HepG2; [8],>80000 nM
CCCCc1ccc(NC(=O)Nc2ccc(O[C@H]3CCCC[C@@H]3N(C)c3ccccc3)c(F)c2)cc1 [MMV676063],HepG2 PBox CC20 μMc,HepG2; [7],5800 nM
CC(=O)N(CCN(C(=O)c1ccc(F)cc1)c1ccccc1)c1ccccc1 [MMV676064],HepG2 PBox CC20 μMc,HepG2; [7],39000 nM
Nc1ncnc2c1c(Cc1cccc3ccccc13)nn2CC1CCNCC1 [MMV676182],HepG2 PBox CC20,HepG2; [8],>80000 nM
CC(=O)Nc1ccc(NC(=O)c2cc(-c3cc(Cl)ccc3O)[nH]n2)cc1 [MMV676380],EC50,P. falciparum ABS; [3],180 nM
same,IC50,P. falciparum ABS; [4],350 nM
O=C(c1ccc(NCCO)cc1)C1C[C@H]1c1ccc(Cl)cc1 (stereo partly drawn) [MMV676877],IC50,P. falciparum ABS; [4],660 nM
CCn1cnc2c(Nc3cc(F)cc(F)c3)nc(C#N)nc21 [MMV676881],IC50,P. falciparum ABS; [4],900 nM
CN1CCN(S(=O)(=O)c2ccc(-c3ccc4c(Nc5ccc6nn[nH]c6c5)ccnc4c3)cc2)CC1 [MMV687246],IC50,P. falciparum ABS; [4],420 nM
CCc1cc(=O)n(C)c(SC(C)C(=O)Nc2ccc(F)cc2)n1 (stereo not drawn) [MMV688980],EC50,P. falciparum ABS; [6],760 nM
same,IC50,P. falciparum ABS; [4],1970 nM
